From patent US6770649B2, “1-[1-(hetero)aryl-1-perhydroxyalkylmethyl]-piperazine compounds, process for their preparation and pharmaceutical compositions containing them” (Solvay Pharmaceuticals GmbH, priority 2001, dated 2004)
Like-named read-outs stand apart in the source and are kept apart here.

How the values were obtained:
NK-2 receptors = target: T1, NK-2 receptors (Cavia porcellus, UniProt Q64077); assay: NK-2-receptor-antagonistic effectiveness in vivo in anaesthetised guinea pigs (NKA test stimulus); set-up: species or system guinea pig; details: for NK-2-receptor-antagonistic activity of colon motility, late drop in blood pressure and respiratory resistance (in words): cumulative administration i.v., antagonism detected 1 min. after administration had ended
T1 construct: the NK-2 receptors present in the gall-bladder preparations; from tissue; host or cells: Pirbright-White guinea pig: isolated gall-bladder (A2); anaesthetised whole animal (A3)
T1 sequence (Q64077 1-402): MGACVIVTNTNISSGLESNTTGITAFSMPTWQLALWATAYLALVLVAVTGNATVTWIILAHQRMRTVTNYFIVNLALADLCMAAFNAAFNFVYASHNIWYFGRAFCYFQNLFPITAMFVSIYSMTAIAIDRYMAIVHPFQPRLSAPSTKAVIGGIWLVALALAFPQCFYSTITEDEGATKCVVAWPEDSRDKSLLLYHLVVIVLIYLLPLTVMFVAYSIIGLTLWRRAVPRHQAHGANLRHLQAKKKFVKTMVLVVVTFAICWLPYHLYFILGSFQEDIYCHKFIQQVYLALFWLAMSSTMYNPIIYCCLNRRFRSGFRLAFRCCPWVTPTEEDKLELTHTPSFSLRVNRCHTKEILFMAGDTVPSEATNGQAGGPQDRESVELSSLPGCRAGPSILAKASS
Description: 3. Determination of the NK-2-receptor-antagonistic Effectiveness of the Test Substances in vivo
The NK-2- and NK-1-antagonistic activities of the test substances were investigated in anaesthetised guinea pigs in each case after intravenous (=i.v.) and oral (=p.o.) administration in vivio. With the present test model it is possible to detect both NK-2-antagonistic effects in three different organ systems (respiratory tracts, colon and circulation) and NK-1-antagonistic effects (rapid drop in blood pressure) in an animal simultaneously.
Pirbright-White guinea pigs of a body weight of 500-700 g were anaesthetised with ketamine/xylazine (67/13 mg/kg subcutaneously, initial dose, further doses administered as required). The animals were provided with an intravenous catheter in order to administer the substance and an intra-arterial catheter to measure the blood pressure. The animals were artificially ventilated via a tracheal cannula and the respiratory pressure was recorded by means of a pressure transducer. A balloon was introduced into the distal colon of the animals for manometric recording of colon motility by means of a pressure transducer. Blood pressure, heart rate, respiratory pressure and colonic pressure were measured continuously for each animal and plotted on a recorder and by means of a digital data-processing system. Neurokinin A (=NKA; 200 pmol/animal) was administered i.v. as a bolus as a test stimulus to stimulate the NK-1- and the NK-2 receptors. An addition of NKA of this type results in a great increase in respiratory pressure (bronchoconstriction) and colonic pressure, and in a biphasic drop in blood pressure. The first phase of hypotension (=phase of maximum hypotension within the first minute after administration of NKA) is mediated via NK-1 receptors, since they can be blocked completely by specific NK-1 receptor antagonists. The second phase of delayed hypotension (=phase of maximum hypotension after 2-5 min.) on the other hand is mediated via NK-2 receptors, since they can be blocked by specific NK-2 receptor antagonists. The doses of the test substances are given as ED50 values which each result in a response to the NKA test stimulus which is reduced to 50% of the initial value, as characteristic variables for the individual measurement parameters bronchoconstriction, colonic pressure and change in blood pressure mediated by NK-1 or NK-2.
The antagonistic effects of the test substances were first investigated in cumulative form, the time of the NKA test stimulus being 1 min. after the administration of the respective doses of the test substances had ended. These ED50 values obtained from cumulative dose effect curves are plotted in Table 2 below. In order additionally to detect the variation over time of the antagonistic effects of the test substances, the action of the NKA test stimulus was determined at different times (1, 30, 60, 90, 120, 150 and 180 min.) after administration of the test substances.

human NK-2 receptor = target: T2, human NK-2 receptor (Homo sapiens, UniProt P21452); assay: Binding power of the test substances to NK-2 receptors in vitro ([3H]-SR 48968 displacement, CHO cell membranes); details: displacement of [3H]-SR 48968, 90 min incubation, average of at least three measurements, 10^-6 to 10^-10 mol/l, read-out: pKi, affinity to human NK-2 receptors (converted)
T2 construct: expressed in transfected cells; host or cells: CHO cells (membrane preparation)
T2 sequence (P21452 1-398): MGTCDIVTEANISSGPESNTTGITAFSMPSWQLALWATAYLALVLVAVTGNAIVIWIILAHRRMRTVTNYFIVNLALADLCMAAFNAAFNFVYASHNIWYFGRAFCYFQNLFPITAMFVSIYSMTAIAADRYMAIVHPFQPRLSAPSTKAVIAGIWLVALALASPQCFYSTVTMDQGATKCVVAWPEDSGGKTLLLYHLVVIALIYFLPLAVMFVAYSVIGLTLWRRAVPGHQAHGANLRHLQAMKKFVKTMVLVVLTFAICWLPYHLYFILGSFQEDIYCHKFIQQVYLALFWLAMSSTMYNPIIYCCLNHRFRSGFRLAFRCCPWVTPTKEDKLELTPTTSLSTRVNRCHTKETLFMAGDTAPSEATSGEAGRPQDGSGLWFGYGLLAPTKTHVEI
Protocol: 1. Determination of the Binding Power of the Test Substances to NK-2 Receptors in vitro
The affinity of the test substances to human NK-2 receptors was measured in vitro. The ability of the test substances to displace the selective NK-2 receptor antagonist SR 48968 (=saredutant) used as reference ligand from its corresponding bond was determined.
The receptor binding studies were carried out with radioactively marked [^3H]-SR 48968 (from Amersham) as ligand. For the binding test, different samples of a membrane preparation of CHO cells (=[…]), which express the human NK-2 receptor (for preparation, see N. P. Gerard et al., Journal of Biological Chemistry 265/33 (1990) 20455-20462), were incubated for 90 minutes (=min.) with a solution of the marked ligand, with the incubation mixtures containing no test substance or additions of different concentrations of test substance. Then in each case the membrane-bound ligands in the samples were separated from free ligands by filtration. The fraction remaining in the filter was washed several times with buffer solution, before its radioactivity was measured using a liquid scintillation counter. That concentration which effects half-maximum displacement of the bound reference ligand was determined as IC50 of the respective test substance. The inhibition constant (Ki value) of the test substance was calculated from the respective IC50 value, and was stated as the negative logarithmised value thereof (pKi).
For the compounds of Examples 1 to 39, the affinity to human NK-2 receptors was determined in each case by at least three measurements of the test substances in concentration series of 10^−6 to 10^−10 mol/l. If several measurements were performed, the average thereof was listed each time.

[1] = guinea pig, iv, cumulative dosing, NKA stimulus 1 min. after administration, NK-2-mediated late drop in blood pressure, read-out: ED50 Blood pressure, i.v. after 1 min. (cumulative)
[2] = guinea pig, iv, cumulative dosing, NKA stimulus 1 min. after administration, respiratory resistance (bronchoconstriction), read-out: ED50 Respiratory resistance, i.v. after 1 min. (cumulative)
[3] = guinea pig, iv, cumulative dosing, NKA stimulus (200 pmol/animal i.v.) 1 min. after administration, colonic pressure, read-out: ED50 Colonic pressure, i.v. after 1 min. (cumulative)
[4] = guinea pig, iv, from AUC of antagonistic effect over 120 min after administration, colonic pressure, read-out: ED50 Colonic pressure, i.v. AUC over 120 min
[5] = guinea pig, iv, from AUC over 120 min after administration, NK-2-mediated drop in blood pressure, read-out: ED50 Blood pressure, i.v. AUC over 120 min
[6] = guinea pig, iv, from AUC over 120 min after administration, respiratory resistance, read-out: ED50 Respiratory resistance, i.v. AUC over 120 min
[7] = guinea pig, po, from AUC over 180 min after administration, NK-2-mediated drop in blood pressure, read-out: ED50 Blood pressure, p.o. AUC over 180 min.
[8] = guinea pig, po, from AUC over 180 min after administration, colonic pressure, read-out: ED50 Colonic pressure, p.o. AUC over 180 min.
[9] = guinea pig, po, from AUC over 180 min after administration, respiratory resistance, read-out: ED50 Respiratory resistance, p.o. AUC over 180 min.

Row | ED50 (NK-2 receptors; [2]) | ED50 (NK-2 receptors; [3]) | ED50 (NK-2 receptors; [4]) | ED50 (NK-2 receptors; [6]) | ED50 (NK-2 receptors; [8]) | ED50 (NK-2 receptors; [9]) | Ki (human NK-2 receptor) | onset and duration of action (in words) (NK-2 receptors; variation over time of the antagonistic effect, guinea pig) | Compound | NK-2-receptor-antagonistic activity of colon motility, late drop in blood pressure and respiratory resistance (in words) (NK-2 receptors) | ED50 (NK-2 receptors; [1]) | ED50 (NK-2 receptors; [5]) | ED50 (NK-2 receptors; [7]) | inhibition of the NK-2 mechanisms at the colon compared with bronchoconstrictive or hypotensive NK-2 effects (in words) (NK-2 receptors; comparison of the Table 2 values)
1 | 0.048 µmol/kg | 0.019 µmol/kg | 0.018 µmol/kg | 0.023 µmol/kg | 1.9 µmol/kg | 2 µmol/kg | ≤ 10 nM | – | CN(CC(CCN1CCN(C(c2ccco2)[C@H](O)[C@@H](O)[C@H](O)CO)CC1)c1ccc(Cl)c(Cl)c1)C(=O)c1ccccc1 (mixture of isomers) [Example 13] | marked NK-2-receptor-antagonistic activity | 0.08 µmol/kg | 0.025 µmol/kg | 24 µmol/kg | –
2 | 0.033 µmol/kg | 0.017 µmol/kg | 0.0009 µmol/kg | 0.008 µmol/kg | 0.5 µmol/kg | 1.8 µmol/kg | ≤ 1 nM | slow-onset action of long duration | CN(C[C@@H](CCN1CCN(C(c2ccsc2)[C@H](O)[C@@H](O)[C@H](O)CO)CC1)c1ccc(Cl)c(Cl)c1)C(=O)c1ccccc1 (stereo partly drawn) [Example 1, N-((2S)-2-(3,4-dichlorophenyl)-4-{4-[(2S,3R,4R)-2,3,4,5-tetrahydroxy-1-(3-thienyl)pentyl]-1-piperazinyl}butyl)-N-methylbenzamide] | marked NK-2-receptor-antagonistic activity | 0.025 µmol/kg | 0.006 µmol/kg | 2.7 µmol/kg | more effective inhibition of the NK-2 mechanisms at the colon (colon preference)
3 | 0.078 µmol/kg | 0.042 µmol/kg | – | – | 3.2 µmol/kg | 6.7 µmol/kg | ≤ 10 nM | – | CC(=O)OC[C@@H](OC(C)=O)[C@H](OC(C)=O)[C@@H](OC(C)=O)C(c1ccsc1)N1CCN(CC[C@H](CN(C)C(=O)c2ccccc2)c2ccc(Cl)c(Cl)c2)CC1 (some centres unmarked) [Example 14] | marked NK-2-receptor-antagonistic activity | 0.063 µmol/kg | – | 9.4 µmol/kg | –
